Legend:
human CRF1 receptors = target: T1, human CRF1 receptors (Homo sapiens, UniProt P34998); experiment: hCRF1 binding assay, 125I-o-CRF competition, Y79 cell membranes; settings: native human CRF1 receptors, Y79 retinoblastoma cells; n=3; read-out: IC50, inhibition of 125I-o-CRF binding to Y79 membrane
T1 construct: the native CRF1 receptors present on the human retinoblastoma cell line Y79; endogenous in cells; host or cells: Y79 human retinoblastoma cells
T1 sequence (P34998 24-415): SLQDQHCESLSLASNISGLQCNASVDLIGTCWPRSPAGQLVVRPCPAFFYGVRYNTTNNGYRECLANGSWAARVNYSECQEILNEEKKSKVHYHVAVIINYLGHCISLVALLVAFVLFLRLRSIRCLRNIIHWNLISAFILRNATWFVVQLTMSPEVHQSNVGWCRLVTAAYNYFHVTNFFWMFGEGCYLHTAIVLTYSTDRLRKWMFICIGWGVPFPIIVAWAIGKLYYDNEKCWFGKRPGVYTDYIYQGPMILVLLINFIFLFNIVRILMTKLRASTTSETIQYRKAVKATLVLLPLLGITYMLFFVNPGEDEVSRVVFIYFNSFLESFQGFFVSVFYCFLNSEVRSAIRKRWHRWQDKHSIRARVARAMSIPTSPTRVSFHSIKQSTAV
Protocol: hCRF1 Binding Assay. Membranes were prepared for binding using Y79 cells, a human retinoblastoma line that natively expresses human CRF1 receptors [Hauger, R., et al., Journal of Neurochemistry 68: 2308-2316, (1997)]. Briefly, cells were grown and collected then the pellet homogenized in assay buffer containing 50 mM Hepes (pH 7.0 at 23° C.), 10 mM MgCl2, 2 mM EGTA, 1 μg/ml aprotinin, 1 μg/ml leupeptin, 1 μg/ml pepstatin A, 0.005% Triton X-100, 10 U/ml bacitracin and 0.1% ovalbumin. The suspension was centrifuged at 32000×g for 30 minutes. The resulting supernatant was discarded and the pellet resuspended by homogenization in assay buffer and centrifuged again. The supernatant was discarded and the pellet resuspended by homogenization in assay buffer and aliquots frozen at −70° C. On the day of the experiment aliquots were thawed quickly and 25 μg/well added to 150 pM ^125I-ovine-CRF and drugs in a total volume of 100 μl assay buffer. The assay mixture was incubated for 2 hr at 21° C. Bound and free radioligand were then separated by rapid filtration using glass fiber filters (Whatman GF/B, pretreated with 0.3% PEI) on a Brandel Cell Harvester. […] Filters were then counted in a Wallac Wizard gamma counter. IC50 values were determined in a five point (five drug concentrations) competition assay using non-linear regression by Microsoft Excel-fit. […]

Male Sprague-Dawley rats = experiment: Situational anxiety behavioral model in rats (latency to exit dark cylinder into open field); assay type: in vivo, rat
Source text: Situational Anxiety Behavioral Studies in Rats. (S)-4-(1-Cyclopropyl-2-methoxyethyl)-6-(6-(difluoromethoxy)-2,5-dimethylpyridin-3-ylamino)-5-oxo-4,5-dihydropyrazine-2-carbonitrile has been evaluated in a situational anxiety model to evaluate its anxiolytic potential. In this model, rats are placed in a small, darkened chamber located in an unfamiliar open field. Vehicle-treated rats spend most of the time within the chamber, consistent with a heightened state of anxiety [Takahashi L. K. et al, Behav. Neurosci. 103: 648-654, (1989)]. This model is sensitive to anxiolytics, including benzodiazepines such as chlordiazepoxide [Yang X-M. et al, J. Pharmacol. Exp. Ther. 255: 1064-1070, (1990)]. In addition, previous CRF1 antagonists, such as DMP696 and DMP904 [McElroy J. F. et al., Psychopharmacology 165: 86-92, (2002); Lelas S. et al., J. Pharmacol. Exp. Ther. 309: 293-302, (2004)] were effective this model. The effects of (S)-4-(1-cyclopropyl-2-methoxyethyl)-6-(6-(difluoromethoxy)-2,5-dimethylpyridin-3-ylamino)-5-oxo-4,5-dihydropyrazine-2-carbonitrile were compared with those of anxiolytic standards chlordiazepoxide (Librium®) and diazepam (Valium®) in this model. Male Sprague-Dawley rats weighing 180-300 g were purchased from Charles River Laboratories (Wilmington, Mass.). The rats were housed individually in suspended wire cages in colony rooms maintained at a constant temperature (21±2° C.) and humidity (50±10%). The rooms were illuminated 12 hours per day. The rats had ad libitum access to food and water throughout the studies. Behavioral studies were conducted between 0600 and 1300 h. Animals were maintained in accordance with the guidelines of the Animal Care and Use Committee of the Bristol-Myers Squibb Company, the “Guide for Care and Use of Laboratory Animals” (Institute of Animal Laboratory Resources, 1996), and the guidelines published in the National Institutes of Health Guide for the Care and Use of Laboratory Animals. Research protocols were approved by the Bristol-Myers Squibb Company Animal Care and Use Committee. All compounds were prepared in 0.25% methylcellulose and administered PO. Chlordiazepoxide, diazepam, and desipramine were purchased from Sigma Chemical Company. (S)-4-(1-Cyclopropyl-2-methoxyethyl)-6-(6-(difluoromethoxy)-2,5-dimethylpyridin-3-ylamino)-5-oxo-4,5-dihydropyrazine-2-carbonitrile was dosed in the volume of 2 ml/kg. All standards were dosed in the volume of 2 ml/kg. For all tests, data were analyzed by analysis of variance, followed by Dunnett's t-tests for individual comparisons. The significance value was set at 0.05. The data are presented in the text and figures as mean±standard error of the mean (SEM). Male Sprague-Dawley rats were habituated to handling and dosing the day before testing. On the day of testing, all compounds were administered PO by gavage 60 minutes before behavioral testing. To initiate testing, each animal was placed in a small galvanized steel cylinder (14 cm length, 10 cm diameter), which was placed lengthwise against one wall of an illuminated open field (106 cm length×92 cm width×50 cm height). The open field was illuminated by a 60-W incandescent bulb and illumination was titrated by a powerstat transformer to a 30-lux reading at the entrance to the cylinder. Behavior was assessed for 15 minutes by a trained observer unaware of treatment assignment. The latency of the animal to exit the cylinder, defined by the placement of all four paws into the open field, and explore the open field was recorded (in seconds). […] The Plexiglas chamber and the cylinder were cleaned with 1.0% glacial acetic acid between animals to prevent olfactory cues from influencing the behavior of subsequently tested animals. Following behavioral testing, animals were sacrificed and plasma samples and brains were taken for analysis of plasma exposure and central receptor occupancy.

COCC(COC)Nc1nc(C)nc2c(-c3ccc(Cl)cc3Cl)c(C)nn12 [DMP696]
IC50 (human CRF1 receptors): 1.71 ± 0.53 nM
decrease in exit latency (Male Sprague-Dawley rats; 10 mg/kg, positive control, dose-response study): 62%
decrease in exit latency (Male Sprague-Dawley rats; 10 mg/kg, positive control, first single-dose study): 57%
decrease in exit latency (Male Sprague-Dawley rats; 10 mg/kg, positive control, second single-dose study): 74%
decrease in exit latency (Male Sprague-Dawley rats; 10 mg/kg, positive control, third single-dose study): 81%

COC[C@H](C1CC1)n1cc(C#N)nc(Nc2cc(C)c(OC(F)F)nc2C)c1=O [(S)-4-(1-cyclopropyl-2-methoxyethyl)-6-(6-(difluoromethoxy)-2,5-dimethylpyridin-3-ylamino)-5-oxo-4,5-dihydropyrazine-2-carbonitrile]
IC50 (human CRF1 receptors): 1.81 ± 0.46 nM
effect on exit latency (Male Sprague-Dawley rats; 0.56 mg/kg PO, dose-response study): did not significantly alter exit latency
effect on exit latency (Male Sprague-Dawley rats; 1.0 mg/kg PO, dose-response study): did not significantly alter exit latency
significant decrease of exit latency (Male Sprague-Dawley rats; 1.0 mg/kg PO, single-dose study): but not of 1.0 mg/kg
decrease in exit latency relative to vehicle-treated controls (Male Sprague-Dawley rats; 1.8 mg/kg PO, dose-response study): 60%
decrease in exit latency (Male Sprague-Dawley rats; 1.8 mg/kg PO, single-dose study): 53%
decrease in exit latency relative to vehicle-treated controls (Male Sprague-Dawley rats; 3.0 mg/kg PO, dose-response study): 56%
decrease in exit latency (Male Sprague-Dawley rats; 3.0 mg/kg PO, single-dose study): 51%
lowest effective dose (decrease of exit latency) (Male Sprague-Dawley rats; PO, 60 minutes before testing): 1.8 mg/kg
anxiolytic-like effects, potency compared with standards (Male Sprague-Dawley rats; PO, summary): comparable potency to the benzodiazepines diazepam and chlordiazepoxide

From patent publication US8372847B2, “Pyrazinone modulator of corticotropin-releasing factor receptor activity” (Bristol-Myers Squibb Company, priority 2008, dated 2013)
